Experiments:
[1] = test system: Male Dunkin Hartley guinea pigs; assay: Simple citric acid cough model; format: in vivo; details: guinea pig; for Average cough times: 17.5% citric acid
Procedure: Male Dunkin Hartley guinea pigs (300-350 g) were placed in an animal atomization box, and then the door of the atomization box was closed while the ultrasonic atomizer (Guangdong Yuehua) was turned on. 17.5% citric acid gas was introduced into the atomization box at a maximum atomization rate (about 2 mL/min) for 20 s, and coughs of the animals within 10 min were continuously observed from the time of the start of atomization. During the 10-min observation, coughs of the animals needed to be counted manually, and the number of coughs were judged according to cough postures of the guinea pigs, such as abdominal twitching, mouth opening, and head inclining downward abruptly. The number of coughs during the first 5 min and that during 10 min were recorded, and the cough latency of the guinea pigs, namely the time from the initiation of citric acid induction to the appearance of the 1st cough, was also recorded.

[2] = molecular target: T1, hP2X4 (human purinergic P2X receptor subtype 4) (Homo sapiens, UniProt Q99571); details: P2X4 IC50 (nM), HEK293 cells stably expressing hP2X4; agonist BZ-ATP 2.5 μM; FLIPR calcium
T1 sequence (Q99571 1-404 isoform Q99571-2): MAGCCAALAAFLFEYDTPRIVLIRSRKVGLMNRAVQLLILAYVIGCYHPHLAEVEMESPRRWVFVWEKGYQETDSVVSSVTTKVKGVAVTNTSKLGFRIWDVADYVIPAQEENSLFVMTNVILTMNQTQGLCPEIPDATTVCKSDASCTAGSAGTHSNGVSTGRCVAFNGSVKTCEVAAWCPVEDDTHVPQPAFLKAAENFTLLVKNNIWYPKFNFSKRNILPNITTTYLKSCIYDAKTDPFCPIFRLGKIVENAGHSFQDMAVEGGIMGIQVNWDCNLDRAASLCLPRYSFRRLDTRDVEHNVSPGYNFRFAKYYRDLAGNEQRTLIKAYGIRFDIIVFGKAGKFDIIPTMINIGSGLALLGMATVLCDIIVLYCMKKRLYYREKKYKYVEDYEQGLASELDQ
Procedure: Cells at 400,000 cells/mL were seeded into a 384-well plate (10,000 cells/well) 18-24 h prior to the FLIPR experiment and then incubated overnight in a cell incubator. […] Each well was added with 20 μL of 0.5×Calcium 6 fluorescent dye (Molecular Devices, R8190) and then the cells were subjected to dye-loading incubation at 37° C. for 1.5 h. Each well was added with 10 μL of respective test compound (dissolved in DMSO at a concentration of 10 mM and serially diluted with buffer) or vehicle and the mixture was equilibrated for 30 min at room temperature.

[3] = 60 mg/kg group, before administration
[4] = citric acid, 20 mg/kg and 60 mg/kg, dose-dependent, vs vehicle group or before administration

Q: What does the source list for `COc1nccc2c(S(N)(=O)=O)cc(NC(=O)Cc3ccccc3Cl)cc12` [Compound 1, 2-(2-chlorophenyl)-N-(1-methoxy-5-sulfamoylisoquinolin-7-yl)acetamide]?
A: Average cough times ([1]; 20 mg/kg group, before administration): 19.00; Average cough times ([1]; 20 mg/kg, after administration): 11.22; Average cough times [1, 3]: 19.40; Average cough times ([1]; 60 mg/kg, after administration): 10.50; Average cough times ([1]; 100 mg/kg group, before administration): 19.90; Average cough times ([1]; 100 mg/kg, after administration): 8.60; Cough inhibition rate Vs basic value (%) ([1]; citric acid, 20 mg/kg): 40.94%; Cough inhibition rate Vs vehicle (%) ([1]; citric acid, 20 mg/kg): 38.41%; cough latency [1, 4]: prolong the cough latency; number of coughs [1, 4]: reduce the number of coughs; Cough inhibition rate Vs basic value (%) ([1]; citric acid, 60 mg/kg): 45.88%; Cough inhibition rate Vs vehicle (%) ([1]; citric acid, 60 mg/kg): 42.38%; drug effect compared with dextromethorphan at the same dosage ([1]; citric acid, 60 mg/kg): no significant difference in the drug effect compared with the positive compound dextromethorphan; Cough inhibition rate Vs basic value (%) ([1]; citric acid, 100 mg/kg): 56.78%; Cough inhibition rate Vs vehicle (%) ([1]; citric acid, 100 mg/kg): 52.80%; IC50 [2]: < 10 nM

Q: Which IC50 [2] does the source give for `COc1ccc(Nc2cc3c(S(N)(=O)=O)cc(NC(=O)Cc4ccccc4Cl)cc3cn2)cc1` [Compound 81, 2-(2-chlorophenyl)-N-(3-((4-methoxyphenyl)amino)-5-sulfamoylisoquinolin-7-yl)acetamide] here?
A: 200 to 5000 nM

Q: `NS(=O)(=O)c1cc(NC(=O)Cc2ccccc2Cl)cc2c1CCN(C1CC1)C2` [Compound 103, 2-(2-chlorophenyl)-N-(2-cyclopropyl-5-sulfamoyl-1,2,3,4-tetrahydroisoquinolin-7-yl)acetamide] was tested. Which IC50 [2] did it give?
A: 10 to 50 nM

Q: How did the IC50 [2] turn out when `NS(=O)(=O)c1cc(NC(=O)Cc2ccccc2Cl)cc2nc(C3CC3)ccc12` [Compound 85, 2-(2-chlorophenyl)-N-(2-cyclopropyl-5-sulfamoylquinolin-7-yl)acetamide] was run?
A: 200 to 5000 nM

Q: Which IC50 [2] does the source give for `COc1ccc(Oc2nccc3c(S(N)(=O)=O)cc(NC(=O)Cc4ccccc4Cl)cc23)cc1` [Compound 35, 2-(2-chlorophenyl)-N-(1-(4-methoxyphenoxy)-5-sulfamoylisoquinolin-7-yl)acetamide] here?
A: 10 to 50 nM

Q: With `COc1ccc(Nc2ccc3c(S(N)(=O)=O)cc(NC(=O)Cc4ccccc4Cl)cc3n2)cc1` [Trifluoroacetate of compound 71, 2-(2-chlorophenyl)-N-(2-((4-methoxyphenyl)amino)-5-sulfamoylquinolin-7-yl)acetamide] as the molecule, how does the IC50 [2] read?
A: 200 to 5000 nM

Q: `COc1ccc2c(c1)[C@]13CCCC[C@@H]1[C@H](C2)N(C)CC3` [Dextromethorphan, dextromethorphan, reference compound] was tested. Which Average cough times [1, 3] did it give?
A: 19.70

Q: What about the Average cough times ([1]; 60 mg/kg, after administration) of the same molecule?
A: 11.20

Q: And the “Cough inhibition rate Vs basic value (%)” value ([1]; citric acid, 60 mg/kg)?
A: 43.15%

Q: What about the “Cough inhibition rate Vs vehicle (%)” value ([1]; citric acid, 60 mg/kg) of the same molecule?
A: 38.54%

Q: Which IC50 [2] does the source give for `NS(=O)(=O)c1cc(NC(=O)Cc2ccccc2Cl)cc2c1CCN(C(=O)C1CC1)C2` [Compound 108] here?
A: < 10 nM

Q: For `N#Cc1cc2c(S(N)(=O)=O)cc(NC(=O)Cc3ccccc3Cl)cc2cn1` [Compound 20, 2-(2-chlorophenyl)-N-(3-cyano-5-sulfamoylisoquinolin-7-yl)acetamide], which IC50 [2] is on record?
A: 10 to 50 nM

Q: Which IC50 [2] does the source give for `NS(=O)(=O)c1cc(NC(=O)Cc2ccccc2Cl)cc2c1CCN(C1COC1)C2` [Compound 123, 2-(2-chlorophenyl)-N-(2-(oxetan-3-yl)-5-sulfamoyl-1,2,3,4-tetrahydroisoquinolin-7-yl)acetamide] here?
A: 200 to 5000 nM

Q: For `COc1nccc2c(S(N)(=O)=O)cc(NC(=O)Cc3cc(F)ccc3Cl)cc12` [Compound 93, 2-(2-Chloro-5-fluorophenyl)-N-(1-methoxy-5-sulfamoylisoquinolin-7-yl)acetamide], which IC50 [2] is on record?
A: 50 to 200 nM

Q: Which IC50 [2] does the source give for `CC(=O)N1CCc2c(cc(NC(=O)Cc3ccccc3Cl)cc2S(N)(=O)=O)C1` [Compound 102, N-(2-acetyl-5-sulfamoyl-1,2,3,4-tetrahydroisoquinolin-7-yl)-2-(2-chlorophenyl)acetamide] here?
A: 10 to 50 nM

Q: How did the IC50 [2] turn out when `COc1ccc(Oc2cc3c(S(N)(=O)=O)cc(NC(=O)Cc4ccccc4Cl)cc3cn2)cc1` [Compound 82, 2-(2-chlorophenyl)-N-(3-(4-methoxyphenoxy)-5-sulfamoylisoquinolin-7-yl)acetamide] was run?
A: 200 to 5000 nM

Q: Which IC50 [2] does the source give for `NS(=O)(=O)c1cc(NC(=O)Cc2ccccc2Cl)cc2c(Nc3ccc(F)cc3)nccc12` [Compound 52, 2-(2-chlorophenyl)-N-(1-((4-fluorophenyl)amino)-5-sulfamoylisoquinolin-7-yl)acetamide] here?
A: 200 to 5000 nM

Q: `CC(C)c1nccc2c(S(N)(=O)=O)cc(NC(=O)Cc3ccccc3Cl)cc12` [Compound 24, 2-(2-chlorophenyl)-N-(1-isopropyl-5-sulfamoylisoquinolin-7-yl)acetamide] was tested. Which IC50 [2] did it give?
A: < 10 nM

Q: With `NS(=O)(=O)c1cc(NC(=O)Cc2ccccc2Cl)cc2c1CCN(c1cc(Cl)c(F)cn1)C2` [Compound 118, N-(2-(4-chloro-5-fluoropyridin-2-yl)-5-sulfamoyl-1,2,3,4-tetrahydroisoquinolin-7-yl)-2-(2-chlorophenyl)acetamide] as the molecule, how does the IC50 [2] read?
A: 50 to 200 nM

Q: With `NS(=O)(=O)c1cc(NC(=O)Cc2ccccc2Cl)cc2c(OCCC3CC3)nccc12` [Compound 17, 2-(2-chlorophenyl)-N-(1-(2-cyclopropylethoxy)-5-sulfamoylisoquinolin-7-yl)acetamide] as the molecule, how does the IC50 [2] read?
A: 50 to 200 nM

Q: `COc1nccc2c(S(N)(=O)=O)cc(NC(=O)Cc3ccc(Cl)cc3Cl)cc12` [Compound 92, 2-(2,4-dichlorophenyl)-N-(1-methoxy-5-sulfamoylisoquinolin-7-yl)acetamide] was tested. Which IC50 [2] did it give?
A: 50 to 200 nM

Q: With `NS(=O)(=O)c1cc(NC(=O)Cc2ccccc2Cl)cc2cnc(Cl)cc12` [Compound 5, N-(3-chloro-5-sulfamoylisoquinolin-7-yl)-2-(2-chlorophenyl)acetamide] as the molecule, how does the IC50 [2] read?
A: 50 to 200 nM

Q: Which IC50 [2] does the source give for `Cc1ccc(N2CCc3c(cc(NC(=O)Cc4ccccc4Cl)cc3S(N)(=O)=O)C2)nc1` [Compound 121, 2-(2-chlorophenyl)-N-(2-(5-methylpyridin-2-yl)-5-sulfamoyl-1,2,3,4-tetrahydroisoquinoline-7-yl)acetamide] here?
A: 50 to 200 nM

Q: How did the IC50 [2] turn out when `NS(=O)(=O)c1cc(NC(=O)Cc2ccccc2Cl)cc2c(C3CC3)nccc12` [Compound 23, 2-(2-chlorophenyl)-N-(1-cyclopropyl-5-sulfamoylisoquinolin-7-yl)acetamide] was run?
A: < 10 nM

Q: With `NS(=O)(=O)c1cc(NC(=O)Cc2ccccc2Cl)cc2ncccc12` [Compound 4, 2-(2-chlorophenyl)-N-(5-sulfamoylquinolin-7-yl)acetamide] as the molecule, how does the IC50 [2] read?
A: 10 to 50 nM

— patent US12692235B2, “Fused ring compound and application thereof” (WUHAN LL SCIENCE AND TECHNOLOGY DEVELOPMENT CO., LTD., priority 2019, dated 2026)
